Laboratory results taken from patent publication US20090285766A1, “Photosensitising Composition and Uses Thereof” (National University of Singapore, priority 2005, published 2009).

Test system: Fibroblast L 929
Experiment: Cytotoxic effect of PDT on fibroblasts (MTT)
Type: cell-based
Details: 100 μM photosensitiser, oxygen carrier, 20 min irradiation, MTT after 24 hours; hypochlorite 100 μL of 5.25%
Description: The experiment described below was performed to assess the cytotoxic effect of PDT in combination with two photosensitisers: […] Sodium hypochlorite is traditionally used to disinfect root canals. Fibroblast L 929 was used in this experiment. Approximately 3.2×10^5 cells were seeded in 4 cm diameter culture dishes in DMEM media supplemented with 10% FCS. Cells were grown by incubating at 37° C., in a carbon dioxide incubator for 24 hours. After the incubation period, 100 μL of ICG (1 mM) was added (the final concentration of ICG was 100 μM). 100 μL of oxygen carrier, perfluorodecahydro naphthalene,] was also added and irradiation was performed for 20 minutes (without shaking). The cells were left in the media for 24 hours under incubation. Later, the supernatant media was removed without disturbing the cell line. The cell layer was washed with 1 mL PBS twice. MTT (0.125 mg % in DMEM), as an indicator of the viable status of cells in the media was added to the Petri dish and incubated at 37° C., for 4 hours. The excess of dye was washed with PBS (2 mL). MTT formed in the Petri dish was extracted and added to 1 mL of DMSO. The optical density at 570 nm was measured. Sodium hypochlorite (100 μL of 5.25%) was used as a control in this experiment. All chemicals were purchased from Sigma Aldrich, St. Louis. Fibroblast L 929 was used in this experiment. […] The optical density at 570 nm was measured. […]

## CC1(C)C(/C=C/C=C/C=C/C=C2\N(CCCCS(=O)(=O)O)c3ccc4ccccc4c3C2(C)C)=[N+](CCCCS(=O)(=O)[O-])c2ccc3ccccc3c21 [ICG, Indocyanine Green]
  cytotoxicity (cells surviving after PDT, ranking): lesser cytotoxicity
